This test has as its system effector T cells (Teff) (CD4+CD127+). As to the kind of experiment: Gene expression in FACS-sorted Teff of trial patients (TaqMan). Type of test: in vivo, human. Here is the method:
FIG. 3. Effector and regulatory T cell function differ according to clinical response: a. effector T cells (Teff) (CD4+CD127+) at beginning of the trial (TO) and end of the study (Tend) were compared for PD-1 expression in both SEQ ID NO. 1 clinical responders and placebo clinical non-responders by FACS. b. FACS-sorted Teffwere analyzed for IL-17 and for RORC. Teff were stained intracellularly with IL-17A, and analyzed by FACS. c. regulatory T cell (Treg) (CD4+CD25++CD127−) frequency (% of PBMC) was determined in SEQ ID NO. 1—treated clinical responders by FACS. […] Values are the mean and s.e.m. d. Treg functionality in SEQ ID NO. […] (placebo clinical non-responders vs SEQ ID NO. 1 clinical responders, —76.21+/−3.665 vs 8.443+/−4.677, n=2 vs 3, t-test p0.0010). Values are the mean and s.e.m.
In FIG. 3b Y axis: % net change between Tend and T0 for both Teff producing IL-17A (first two columns, measured by FACS) and RORC expression (measured by TaqMan). […] Results were analyzed as a percentage of GAPDH. […] Values are the mean and s.e.m.
Successful treatment with SEQ ID NO: 1 therefore induced an immune deviation of Teff cells by reducing their ability to produce pro-inflammatory cytokines. An increase in the number of Treg cells could be one possible explanation for this observation.
(In general: Real-time PCR tracks product formation cycle by cycle.)

Setting [1] is: responders, end of the treatment regime (FIG. 9A).

Ends that are not written are not given here.

For the substance QKRAAYDQYGHAAFE-NH2 [SEQ ID NO. 1], under “clinical responders, Tend, T0 3.382+/−0.684, mean and s.e.m.”, the “RORC gene expression in Teff” value is given as 1.670+/−0.714 percentage of GAPDH. Moreover, under setting [1], the “IFNγ expression in CD4+Teff cells” value was “significantly lower levels” and the “IL-17A expression in CD4+Teff cells” value is recorded as “significantly lower levels”.
